Patent US5955632A, “Seco-d steroids active on the cardiovascular system, processes for their preparation and pharmaceutical compositions containing them” (Sigma-Tau Industrie Farmaceutiche Riunite S.p.A., priority 1996, dated 1999)
Where a name gives a salt, the structure may show the parent alone.

Key:
Na^+,K^+ -ATPase [1] = target: T1, Na^+,K^+ -ATPase (Canis lupus familiaris, UniProt P50997); test: displacement of the specific ^3H-ouabain binding from the purified Na^+,K^+-ATPase receptor
T1 construct: from tissue; the cited Jorgensen 1974 method uses outer medulla of mammalian kidney (own knowledge)
Excerpt: (§1) To test the affinity for the receptor site of the Na^+,K^+ -ATPase and the agonist or antagonist activity on the enzyme, the following tests were used:
a) displacement of the specific ^3 H-ouabain binding from the Na^+,K^+ -ATPase receptor purified according to Jorghensen (Jorghensen P., BBA, 1974, 356, 36) and Erdmann (Erdmann E. et al., Arzneim. Forsh, 1984, 34, 1314);

Na^+,K^+ -ATPase [2] = target: T1, Na^+,K^+ -ATPase; test: biochemical
Excerpt: as §1
b) inhibition of the activity of the purified Na^+,K^+ -ATPase measured as % of hydrolysis of ^32 P-ATP in presence and in absence of the tested compound (Doucet A. et al., Am. J. Physiol., 1986, 251, F851).

[3] = test system: spontaneous hypertensive rats (MHS); test: effect of 5 week-treatment in spontaneous hypertensive rats (MHS) on the development of hypertension (tail cuff SBP and HR); format: in vivo, rat; conditions: 1 mg/Kg/os daily in Methocel 0.5% w/v, 5 weeks; for SBP (systolic blood pressure): controls (Methocel) 172 +/- 3.5; for HR (heart rate): controls (Methocel) 380 +/- 9.0
Description: To test the antihypertensive activity the following test was used:
systolic blood pressure (SBP) and heart rate (HR) were measured, by the tail cuff method, in young prehypertensive male rats (MHS or SHR) strains before the development of hypertension (4 weeks of age) for recording the basal values of SBP. Groups of 7 rats were formed and subdivided in control and treated groups. The compound, suspended in Methocel 0.5% (w/v), was orally given daily for at least 5 weeks to the treated groups. The control group received only Methocel. SBP and HR were measured weekly 6 and 24 hrs after treatment. After 5 weeks of treatment, when hypertension was fully developed in the control group (9 weeks of age), washout was started for at least one week, to verify whether the treatment mantained blood pressure low or reestablished the basal values.
(Takeda K. et al., Japan J. Pharmacol., 1979, 29,171; Takeda K. et al. Japan J. Pharmacol., 1982, 32, 283; Richer C. et al. Eur. J. Pharmacol, 1978, 47,393).

[4] = ^3H-ouabain displacement, purified Na^+,K^+-ATPase, read-out: Binding ^3 H-Ouab. Displacement log IC50 (converted)
[5] = purified Na^+,K^+-ATPase, ^32P-ATP hydrolysis, read-out: Inhibitory Activity log IC50 (converted)

| IC50 (Na^+,K^+ -ATPase [1]; [4]) | IC50 (Na^+,K^+ -ATPase [2]; [5]) | SMILES | SBP (systolic blood pressure) [3] | HR (heart rate) [3] | IC50 (Na^+,K^+ -ATPase [1]) | IC50 (Na^+,K^+ -ATPase [2]) |
| --- | --- | --- | --- | --- | --- | --- |
|  |  | CC[C@@H](C/C=N/OCCN(C)C)[C@@]1(C)CC[C@H]2[C@@H](CC[C@@H]3C[C@@H](O)CC[C@@]32C)C1=O [Comp. I-as, E-17α-2-[(2-Dimethylaminoethoxy)iminomethyl]-5β-14,15-seco-3β-hydroxy-androstan-14-one oxalate] |  |  | 100 nM | 1260 nM |
| 3980 nM | 100000 nM | CC[C@H](/C=N/OCCN(C)C)[C@@]1(C)CC[C@H]2[C@@H](CC[C@@H]3C[C@@H](O)CC[C@@]32C)C1=O [Comp. I-ai, E-17β-2-[(2-Dimethylaminoethoxy)iminomethyl]-5β-14,15-seco-3β-hydroxy-androstan-14-one oxalate] |  |  |  |  |
|  |  | C[C@@H](C/C=N/OCCN)[C@@]1(C)CC[C@H]2[C@@H](CC[C@@H]3C[C@@H](O)CC[C@@]32C)C1=O [Comp. I-ae, E-17β-Methyl-15-[(2-aminoethoxy)imino]-5β-14,15-seco-3β-hydroxy-androstan-14-one oxalate] | 149 +/- 3.7 mm Hg | 370 +/- 11.2 beats/min. |  |  |
|  |  | CC[C@@H](C/C=N/OCCN(C)C)[C@@]1(C)CC[C@H]2[C@@H](CC[C@H]3C[C@@H](O)CC[C@@]32C)C1=O [Comp. I-bi, E-17α-2-[(2-Dimethylaminoethoxy)iminomethyl]-14,15-seco-3β-hydroxy-androstan-14-one oxalate] |  |  | 2000 nM | 10000 nM |
| 316 nM | 6310 nM | CC[C@@H](C/C=C/C=N/OCCN(C)C)[C@@]1(C)CC[C@H]2[C@@H](CC[C@@H]3C[C@@H](O)CC[C@@]32C)C1=O [Comp. I-be, E,E-17α-4-[(2-Dimethylaminoethoxyimino)-2-butenyl]-5β-14,15-seco-3β-hydroxy-androstan-14-one oxalate] | 150 +/- 5.1 mm Hg | 384 +/- 7.9 beats/min. |  |  |
|  |  | CC[C@@H](C/C=N/OCCN)[C@@]1(C)CC[C@H]2[C@@H](CC[C@@H]3C[C@@H](O)CC[C@@]32C)C1=O [Comp. I-ao, E-17α-2-[(2-Aminoethoxy)iminomethyl]-5β-14,15-seco-3β-hydroxy-androstan-14-one oxalate] |  |  | 39.8 nM | 200 nM |
|  |  | CC[C@H](C/C=N/OCCN(C)C)[C@@]1(C)CC[C@H]2[C@@H](CC[C@@H]3C[C@@H](O)CC[C@@]32C)C1=O [Comp. I-aq, E-17β-2-[(2-Dimethylaminoethoxy)iminomethyl]-5β-14,15-seco-3β-hydroxy-androstan-14-one oxalate] |  |  | 794 nM | 12600 nM |
|  |  | CC[C@@H](C/C=N/OCCN)[C@@]1(C)CC[C@H]2[C@@H](CC[C@H]3C[C@@H](O)CC[C@@]32C)C1=O [Comp. I-bg, E-17α-2-[(2-Aminoethoxy)iminomethyl]-14,15-seco-3β-hydroxy-androstan-14-one oxalate] | 151 +/- 5.2 mm Hg | 388 +/- 9.0 beats/min. | 158 nM | 1000 nM |
|  |  | C[C@@H](C/C=N/OCCN(C)C)[C@@]1(C)CC[C@H]2[C@@H](CC[C@@H]3C[C@@H](O)CC[C@@]32C)C1=O [Comp. I-ag, E-17β-Methyl-15-[(2-dimethylaminoethoxy)imino]-5β-14,15-seco-3β-hydroxy-androstan-14-one oxalate] | 154 +/- 4.8 mm Hg | 390 +/- 5.9 beats/min. |  |  |
| 398 nM | 3160 nM | CC[C@@H](C/C=N/NC(=N)N)[C@@]1(C)CC[C@H]2[C@@H](CC[C@@H]3C[C@@H](O)CC[C@@]32C)C1=O [Comp. I-ay, E-17α-2-(2-Guanidinoiminoethyl)-5β-14,15-seco-3β-hydroxy-androstan-14-one oxalate] |  |  |  |  |

| SMILES | IC50 (Na^+,K^+ -ATPase [1]; [4]) | IC50 (Na^+,K^+ -ATPase [2]; [5]) | SBP (systolic blood pressure) [3] | HR (heart rate) [3] | IC50 (Na^+,K^+ -ATPase [1]) | IC50 (Na^+,K^+ -ATPase [2]) |
| --- | --- | --- | --- | --- | --- | --- |
| CC[C@@H](/C=N/OCCN(C)C)[C@@]1(C)CC[C@H]2[C@@H](CC[C@@H]3C[C@@H](O)CC[C@@]32C)C1=O [Comp. I-ak, E-17β-2-[(2-Dimethylaminoethoxy)iminomethyl]-5β-14,15-seco-3β-hydroxy-androstan-14-one oxalate] | 501 nM | 7940 nM | 153 +/- 6.3 mm Hg | 380 +/- 10.0 beats/min. |  |  |
